# Earlier results as cited in patent US20060040940A1, “Imidazopyridines pyrimidines and triazines for enhancing cognition as gaba-a-alphas 5 receoptor subtype ligands” (priority 2001, published 2006).
# Columns and labels:
# benzodiazepine receptor [1] = conditions: reported in Psychobiology, 21:101-108
# benzodiazepine receptor [2] = conditions: background statement
smiles,measurement,setting,value
COC(=O)c1cc2c(cn1)[nH]c1ccccc12 [β-CCM],spatial learning in the Morris watermaze,benzodiazepine receptor [1],enhanced spatial learning
same,proconvulsant effect,benzodiazepine receptor [2],proconvulsant
